One test has as its system DocSTm toxin. The conditions noted are these: DocSTm 5 μM, peptide 50 μM; for Average Tm of DocSTm in the presence of peptide: pH 8.0, average ± SD, replicates 3-48 (Table S3). The method in brief: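 Thermal shift with 5 μM recombinant Doc toxin and 50 μM Phd peptides in 20 mM K2HPO4, 50 mM (NH4)2SO4, pH 8.0, SYPRO Orange 3×, ramped 25–95 °C. Tm from Boltzmann fit; ΔTm is peptide-bound minus free DocSTm Tm, triplicates.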

The test system of test [1] is S. typhimurium (14028s) Δphd-doc::Km strain expressing DocSTm (pBAD33::doc). The test can be described thus: Growth rescue experiments in DocSTm-expressing S. typhimurium. It is filed as cell-based. The conditions noted are these: three independent experiments; for Rescue from DocSTm-induced growth inhibition (OD600): 10 μM synthetic peptide, 24 h, 37 °C, start OD600 0.1, M9 minimal medium with 0.5% arabinose. The method, then:
S. typhimurium (14028s) Δphd-doc::Km strains carrying pCA24N (empty vector or encoding for the Phd^52–73 variant) and pBAD33::doc plasmids were grown overnight in LB medium containing 1% glucose and supplemented with 100 μg/mL carbenicillin and 34 μg/mL chloramphenicol antibiotics. Cultures were then diluted to an OD600 of approximately 0.1 into 200 μL of fresh M9 minimal medium supplemented with 0.5% arabinose, 100 μg/mL carbenicillin, 34 μg/mL chloramphenicol, and containing 2 or 10 μM of the indicated synthetic Phd^52–73 peptide. Untreated DocSTm-expressing S. typhimurium as well as S. typhimurium coexpressing Doc and Phd^52–73 peptides were included as controls in each experiment. After 2 h of incubation at RT, samples were transferred to a flat-bottom 96-well plate (Greiner), and OD600 was monitored every 15 min for 24 h at 37 °C using an Infinite M Plex plate reader (Tecan LifeScience) and orbital shaking with 1 mm amplitude. Peptides were tested in three independent experiments.

Test [2] concerns DocSTm (phosphorylation of EF-TuSTm). The test can be described thus: Dot blot EF-Tu phosphorylation assay. In kind it is biochemical, Salmonella Typhimurium. The conditions noted are these: DocSTm 1 μM, EF-TuSTm 3 μM, peptide 10 μM to 5 nM (3-fold dilutions), 16 h RT, dot blot anti-phosphothreonine; compared at three times the DocSTm concentration; two independent experiments. As for the experimental part: Samples were prepared in assay buffer [50 mM HEPES (pH 7.5), 25 mM (NH4)2SO4, 2 mM TCEP, 2 mM MgCl2, and 1 mM ATP] with a final concentration of recombinant Doc at 1 μM, recombinant EF-Tu at 3 μM, and varying concentrations of synthetic Phd peptides (final concentrations: 10 μM to 5 nM). EF-Tu (3 μM) in assay buffer was used as a negative control (no Doc and Phd peptide), while EF-Tu (3 μM) with Doc (1 μM) in assay buffer was used as a positive control (no Doc inhibitor). The final sample volume was 10 μL. Samples were incubated for 16 h at RT and subsequently spotted on a nitrocellulose membrane. Phosphorylated EF-Tu was detected by immunodecoration using a rabbit monoclonal antiphosphothreonine antibody (Abcam, ab218195) at 1:2000 dilution (1 h at 4 °C), followed by incubation with a goat antirabbit IgG (H + L) HRP conjugate antibody (Advansta) at 1:10,000 dilution (1 h at RT). Chemiluminescence was developed using the HRP Luminata Kit (Merck, WBLUR0100) and captured with an ImageQuant LAS4000 Western blot imaging system (GE HealthCare). Each peptide was tested in two independent experiments.

“Also recorded” adds a separate entry of the source. Positions of bridges follow the written chain, without caps; N, C: chain ends. Non-standard residues stand in square brackets, D forms with d. Residues, ends and D or L forms follow the SMILES beside them. S5 = C=CCCC[C@](C)(N)C(=O)O; Nle = CCCC[C@H](N)C(=O)O

Here are results for two molecules from PMC10728895, “Stapled Phd Peptides Inhibit Doc Toxin Induced Growth Arrest in Salmonella” (ACS Chemical Biology, 2023).

On to `CCCC[C@H](NC(=O)[C@H](Cc1c[nH]c2ccccc12)NC(C)=O)C(=O)N[C@@H](CC(=O)O)C(=O)N[C@@H](CC(=O)O)C(=O)N[C@@H](CCC(=O)O)C(=O)N[C@@H](Cc1ccccc1)C(=O)N[C@@H](C)C(=O)N[C@@H](C)C(=O)N[C@H](C(=O)N[C@@H](CCCC)C(=O)N[C@@H](C)C(=O)N[C@H](C(=O)N[C@@H](Cc1c[nH]cn1)C(=O)NCC(=O)N[C@@H](CC(N)=O)C(=O)N[C@@H](CCC(=O)O)C(=O)N[C@@H](CC(C)C)C(=O)N[C@@H](CCCNC(=N)N)C(=O)N[C@@H](CCC(=O)O)C(=O)N[C@@H](CC(C)C)C(=O)N[C@@H](C)C(=O)N[C@@H](CC(=O)O)C(=O)N[C@@H](CCCCN)C(=O)O)C(C)C)[C@@H](C)CC` [Peptide 1] (Ac-W[Nle]DDEFAAI[Nle]AVHGNELRELADK-OH), for which the “ΔTm (thermal shift) of DocSTm in the presence of peptide” value in the test on DocSTm toxin (SYPRO Orange 3×, 20 mM K2HPO4, 50 mM (NH4)2SO4, pH 8.0, average Tm with peptide minus average Tm of free DocSTm, mean ± SD) is 28.8 ± 2.7 °C. The “Average Tm of DocSTm in the presence of peptide” value in the test on DocSTm toxin came out at 71.0 ± 1.1 °C. The “Rescue from DocSTm-induced growth inhibition (OD600)” value in test [1] was “consistent and full rescue; also recorded: growth rescue was also observed”. For the same molecule, the “Inhibition of EF-TuSTm phosphorylation by DocSTm (concentration needed for full inhibition)” value in test [2] is “fully inhibited”.
`CCCC[C@H](NC(=O)[C@H](Cc1c[nH]c2ccccc12)NC(C)=O)C(=O)N[C@@H](CC(N)=O)C(=O)N[C@@H](CC(N)=O)C(=O)N[C@@H](CCC(=O)O)C(=O)N[C@@H](Cc1ccccc1)C(=O)N[C@@]1(C)CCCC=CCCC[C@@](C)(C(=O)N[C@H](C(=O)N[C@@H](Cc2c[nH]cn2)C(=O)NCC(=O)N[C@@H](CCCNC(=N)N)C(=O)N[C@@H](CCC(N)=O)C(=O)N[C@@H](CC(C)C)C(=O)N[C@@H](CCCNC(=N)N)C(=O)N[C@@H](CCCNC(=N)N)C(=O)N[C@@H](CC(C)C)C(=O)N[C@@H](C)C(=O)N[C@@H](CCCNC(=N)N)C(=O)N[C@@H](CCCCN)C(=O)O)C(C)C)NC(=O)[C@H](CCCC)NC(=O)[C@H]([C@@H](C)CC)NC(=O)[C@H](C)NC1=O` [Peptide 36] (Ac-W[Nle]NNEF[S5]AI[Nle][S5]VHGRQLRRLARK-OH; staple 7-11): the “Average Tm of DocSTm in the presence of peptide” value in the test with DocSTm toxin was 61.3 ± 1.1 °C. Moreover, the Growth rescue kinetics entry in test [1] (10 μM peptide, growth curves over 24 h at 37 °C) is “faster growth rescue than peptide 1; also recorded: more rapidly than 1; also recorded: faster rate than the unmodified peptide 1”. For the same molecule, the “Rescue from DocSTm-induced growth inhibition (OD600)” value in test [1] is “reproducibly rescued DocSTm-induced growth arrest; also recorded: growth rescue was also observed; also recorded: fully rescued”.
